# Key:
# rat [1] = conditions: Subchronic oral toxicity in rodents, fischer, Gavage/Intubation, dose end: 13 week, group: systemic, systemic / in life observation / clinical signs / aggressive behavior + systemic / in life observation / clinical signs / hypersensitivity…
# mouse [2] = conditions: Subchronic oral toxicity in rodents, b6c3f1, Gavage/Intubation, dose end: 13 week
# rat [3] = conditions: Carcinogenicity, fischer, Oral, Gavage/Intubation, dose end: 105 week, group: systemic
# mouse [4] = conditions: Subchronic oral toxicity in rodents, b6c3f1, Gavage/Intubation, dose end: 22 week, group: systemic, systemic / in life observation / clinical signs / aggressive behavior + systemic / in life observation / clinical signs / convulsions + …
# rat [5] = conditions: Subchronic oral toxicity in rodents, fischer, Gavage/Intubation, dose end: 13 week
# rat [6] = conditions: Subchronic oral toxicity in rodents, fischer, Feed, dose end: 12 week, group: systemic
# mouse [7] = conditions: Combined chronic toxicity/carcinogenicity, b6c3f1, Oral, Feed, dose end: 2 year, group: systemic
# rat [8] = conditions: Combined chronic toxicity/carcinogenicity; fischer; Oral; Feed; dose end: 2 year; group: systemic; systemic / in life observation / body weight / body weight
# mouse [9] = conditions: Subchronic oral toxicity in rodents, b6c3f1, Feed, dose end: 12 week, group: systemic
# rat [10] = conditions: Subchronic oral toxicity in rodents, fischer, Feed, dose end: 13 week, group: systemic
# rat [11] = conditions: Carcinogenicity; fischer; Oral; Feed; dose end: 103 week; group: systemic; systemic / pathology microscopic / pituitary gland / hyperplasia
# dog = conditions: Subchronic oral toxicity in nonrodent, beagle, Capsule, dose end: 26 week, group: systemic
# rat [12] = conditions: Prenatal developmental toxicity study, other, Oral, Gavage/Intubation, dose end: 19 GD
# mouse [13] = conditions: Carcinogenicity; b6c3f1; Oral; Feed; dose end: 103 week; group: systemic; systemic / in life observation / body weight / body weight
# rat [14] = conditions: Combined chronic toxicity/carcinogenicity, fischer, Oral, Feed, dose end: 2 year, group: systemic
# mouse [15] = conditions: Subchronic oral toxicity in rodents, b6c3f1, Feed, dose end: 13 week, group: systemic
# rat [16] = conditions: Chronic toxicity, fischer, Oral, Feed, dose end: 103 week, group: systemic
# mouse [17] = conditions: Carcinogenicity, b6c3f1, Oral, Feed, dose end: 2 year, group: systemic
# rat [18] = conditions: Multigenerational reproductive toxicity study, sprague dawley, Oral, Feed, dose end: 2 generation
# rat [19] = conditions: Multigenerational reproductive toxicity study, sprague dawley, Oral, Feed, dose end: 2 generation; remark: listed apart in the source
# mouse [20] = conditions: Prenatal developmental toxicity study; cd1; Oral; Gavage/Intubation; dose end: 17 GD; group: developmental; systemic / in life observation / clinical signs / aggressive behavior + systemic / organ weight / testes / absolute
# [21] = group: maternal, reproductive / reproductive performance / estrous cycle / abnormal
# [22] = group: systemic, systemic / in life observation / body weight / body weight + systemic / in life observation / body weight / body weight gain
# [23] = group: systemic, systemic / in life observation / clinical signs / aggressive behavior + systemic / in life observation / clinical signs / convulsions + …
# [24] = systemic / in life observation / clinical signs / [other] + systemic / in life observation / clinical signs / convulsions
# [25] = systemic / in life observation / clinical signs / [other] + systemic / in life observation / clinical signs / convulsions + systemic / …
# [26] = group: systemic, systemic / in life observation / clinical signs / aggressive behavior + systemic / in life observation / clinical signs / reactivity to …
# [27] = systemic / in life observation / body weight / body weight gain
# [28] = systemic / in life observation / body weight / body weight gain + systemic / pathology microscopic / bone marrow / hyperplasia + systemic / …
# [29] = systemic / in life observation / body weight / body weight + systemic / pathology microscopic / liver / carcinoma
# [30] = systemic / pathology microscopic / liver / carcinoma
# [31] = systemic / in life observation / body weight / body weight + systemic / in life observation / clinical signs / fur (altered appearance) + …
# [32] = systemic / clinical chemistry / cholesterol / cholesterol + systemic / clinical chemistry / glucose / glucose + systemic / hematology / …
# [33] = systemic / in life observation / body weight / body weight + systemic / in life observation / body weight / body weight gain + systemic / in…
# [34] = group: developmental, systemic / in life observation / body weight / fetal weight
# [35] = group: maternal, systemic / in life observation / clinical signs / abnormal movements + systemic / in life observation / clinical signs / salivation
# [36] = systemic / in life observation / body weight / body weight + systemic / in life observation / food consumption / food consumption + systemic…
# [37] = systemic / in life observation / body weight / body weight + systemic / in life observation / mortality / mortality + systemic / organ …
# [38] = systemic / organ weight / liver / relative to body weight + systemic / organ weight / liver / absolute
# [39] = systemic / pathology microscopic / skin / subcutaneous mass
# [40] = systemic / in life observation / body weight / body weight + systemic / in life observation / body weight / body weight gain
# [41] = group: offspring, systemic / in life observation / body weight / offspring (pup) weight + systemic / in life observation / body weight / offspring (pup) …
# [42] = group: parental, systemic / in life observation / body weight / body weight + systemic / in life observation / body weight / body weight gain
# [43] = group: reproductive, reproductive / offspring survival early / litter size / litter size + reproductive / offspring survival early / birth index / live birth …
# [44] = group: offspring, systemic / in life observation / clinical signs / [other]
# [45] = group: parental, systemic / organ weight / liver / relative to body weight
smiles,measurement,setting,value
CCCCCc1cc(O)c2c(c1)OC(C)(C)[C@@H]1CCC(C)=C[C@@H]21 [1-trans-delta-9-Tetrahydrocannabinol],LEL,rat [1],5 mg/kg/day
same,LOAEL,rat [1],> 500 mg/kg/day
same,NEL,rat [1],< 5 mg/kg/day
same,NOAEL,rat [1],≥ 500 mg/kg/day
same,LEL,mouse [2]; [21],5 mg/kg/day
same,LOAEL,mouse [2]; [21],> 500 mg/kg/day
same,NEL,mouse [2]; [21],< 5 mg/kg/day
same,NOAEL,mouse [2]; [21],≥ 500 mg/kg/day
same,LOAEL,mouse [2]; [22],500 mg/kg/day
same,LEL,mouse [2]; [23],5 mg/kg/day
same,NEL,mouse [2]; [23],< 5 mg/kg/day
same,NOAEL,mouse [2]; [23],150 mg/kg/day
same,LOAEL,rat [3]; [24],12.5 mg/kg/day
same,NOAEL,rat [3]; [24],< 12.5 mg/kg/day
same,LEL,rat [3]; [25],12.5 mg/kg/day
same,NEL,rat [3]; [25],< 12.5 mg/kg/day
same,LEL,mouse [4],5 mg/kg/day
same,LOAEL,mouse [4],> 500 mg/kg/day
same,NEL,mouse [4],< 5 mg/kg/day
same,NOAEL,mouse [4],≥ 500 mg/kg/day
same,LEL,rat [5]; [21],15 mg/kg/day
same,LOAEL,rat [5]; [21],> 500 mg/kg/day
same,NEL,rat [5]; [21],5 mg/kg/day
same,NOAEL,rat [5]; [21],≥ 500 mg/kg/day
same,LOAEL,rat [5]; [22],15 mg/kg/day
same,LEL,rat [5]; [26],5 mg/kg/day
same,NEL,rat [5]; [26],< 5 mg/kg/day
same,NOAEL,rat [5]; [26],5 mg/kg/day
O=S(=O)([O-])c1ccc(N=Nc2c(O)ccc3cc(S(=O)(=O)[O-])ccc23)cc1.[Na+].[Na+] [FD&C Yellow 6],LEL,rat [6]; [27],625 mg/kg/day
same,LOAEL,rat [6]; [27],2500 mg/kg/day
same,NEL,rat [6]; [28],300 mg/kg/day
same,NOAEL,rat [6]; [28],1250 mg/kg/day
same,LOAEL,mouse [7]; [29],> 3750 mg/kg/day
same,NOAEL,mouse [7]; [29],≥ 3750 mg/kg/day
same,LEL,mouse [7]; [30],1880 mg/kg/day
same,NEL,mouse [7]; [30],< 1880 mg/kg/day
same,LEL,rat [8],1250 mg/kg/day
same,LOAEL,rat [8],> 1250 mg/kg/day
same,NEL,rat [8],625 mg/kg/day
same,NOAEL,rat [8],≥ 1250 mg/kg/day
same,LEL,mouse [9]; [27],900 mg/kg/day
same,LOAEL,mouse [9]; [27],15000 mg/kg/day
same,NEL,mouse [9]; [27],< 900 mg/kg/day
same,NOAEL,mouse [9]; systemic / in life observation / body weight / body weight gain + systemic / in life observation / body weight / body weight,7500 mg/kg/day
C=C(C)[C@H]1Cc2c(ccc3c2O[C@@H]2COc4cc(OC)c(OC)cc4[C@@H]2C3=O)O1 [Rotenone],LOAEL,rat [10]; [31],> 60 mg/kg/day
same,NEL,rat [10]; [31],3.75 mg/kg/day
same,NOAEL,rat [10]; [31],≥ 60 mg/kg/day
same,LEL,rat [10]; systemic / in life observation / body weight / body weight + systemic / pathology microscopic / bone marrow / atrophy + systemic / pathology…,7.5 mg/kg/day
same,LEL,rat [11],3.4 mg/kg/day
same,LOAEL,rat [11],> 3.4 mg/kg/day
same,NEL,rat [11],1.7 mg/kg/day
same,NOAEL,rat [11],≥ 3.4 mg/kg/day
same,LOAEL,dog; [32],10 mg/kg/day
same,NEL,dog; [32],0.4 mg/kg/day
same,NOAEL,dog; [32],2 mg/kg/day
same,LEL,dog; [33],2 mg/kg/day
same,LEL,rat [12]; [34],6 mg/kg/day
same,LOAEL,rat [12]; [34],6 mg/kg/day
same,NEL,rat [12]; [34],3 mg/kg/day
same,NOAEL,rat [12]; [34],3 mg/kg/day
same,LEL,rat [12]; [35],0.75 mg/kg/day
same,LOAEL,rat [12]; [35],0.75 mg/kg/day
same,NEL,rat [12]; [35],< 0.75 mg/kg/day
same,NOAEL,rat [12]; [35],< 0.75 mg/kg/day
same,LEL,mouse [13],111 mg/kg/day
same,LOAEL,mouse [13],> 242 mg/kg/day
same,NEL,mouse [13],< 111 mg/kg/day
same,NOAEL,mouse [13],≥ 242 mg/kg/day
same,LOAEL,rat [14]; systemic / in life observation / body weight / body weight + systemic / in life observation / food consumption / food consumption,1.88 mg/kg/day
same,LEL,rat [14]; [36],1.88 mg/kg/day
same,NEL,rat [14]; [36],0.375 mg/kg/day
same,NOAEL,rat [14]; [36],0.375 mg/kg/day
same,LOAEL,mouse [15]; [37],> 7500 mg/kg/day
same,NOAEL,mouse [15]; [37],≥ 7500 mg/kg/day
same,LEL,mouse [15]; [38],90 mg/kg/day
same,NEL,mouse [15]; [38],< 90 mg/kg/day
same,LOAEL,rat [16]; systemic / pathology microscopic / pituitary gland / hyperplasia + systemic / pathology microscopic / parathyroid gland / hyperplasia,3.4 mg/kg/day
same,NOAEL,rat [16]; systemic / pathology microscopic / pituitary gland / hyperplasia + systemic / pathology microscopic / parathyroid gland / hyperplasia + …,1.7 mg/kg/day
same,LEL,rat [16]; [39],1.8 mg/kg/day
same,NEL,rat [16]; [39],< 1.8 mg/kg/day
same,LOAEL,mouse [17]; [40],111 mg/kg/day
same,NOAEL,mouse [17]; [40],< 111 mg/kg/day
same,LEL,mouse [17]; [33],111 mg/kg/day
same,NEL,mouse [17]; [33],< 111 mg/kg/day
same,LEL,rat [18]; [41],3.1 mg/kg/day
same,LOAEL,rat [18]; [41],3.1 mg/kg/day
same,NEL,rat [18]; [41],0.6 mg/kg/day
same,NOAEL,rat [18]; [41],0.6 mg/kg/day
same,LEL,rat [18]; [42],3 mg/kg/day
same,LOAEL,rat [18]; [42],3 mg/kg/day
same,NEL,rat [18]; [42],0.6 mg/kg/day
same,NOAEL,rat [18]; [42],0.6 mg/kg/day
same,LEL,rat [18]; [43],7 mg/kg/day
same,LOAEL,rat [18]; [43],> 7 mg/kg/day
same,NEL,rat [18]; [43],3.1 mg/kg/day
same,NOAEL,rat [18]; [43],≥ 7 mg/kg/day
"Clc1ccc(C(c2ccccc2Cl)C(Cl)(Cl)Cl)cc1 (stereo not drawn) [o,p'-DDT]",LEL,rat [19]; [44],10 mg/kg/day
same,LOAEL,rat [19]; [44],> 10 mg/kg/day
same,NEL,rat [19]; [44],1 mg/kg/day
same,NOAEL,rat [19]; [44],≥ 10 mg/kg/day
same,LEL,rat [19]; [45],10 mg/kg/day
same,LOAEL,rat [19]; [45],> 10 mg/kg/day
same,NEL,rat [19]; [45],1 mg/kg/day
same,NOAEL,rat [19]; [45],≥ 10 mg/kg/day
same,LEL,mouse [20],18 mg/kg/day
same,LOAEL,mouse [20],> 180 mg/kg/day
same,NEL,mouse [20],< 18 mg/kg/day
same,NOAEL,mouse [20],≥ 180 mg/kg/day

# Reference: EPA's ToxRefDB 2
